Patent US10597366B2, “Aryl ethers and uses thereof” (Peloton Therapeutics, Inc., priority 2013, dated 2020)
Where two headings read alike, the source gives them in different places.

Test system: 786-O-Hif-Luc cells (luciferase gene driven by multiple HIF responsive elements)
Experiment: Luciferase Assay
Assay type: cell-based
Details: 24 h, read-out: Mean Luciferease EC50
Method: A pool of infected cells were then selected against 2 μg/mL of puromycin (P8833, Sigma) for 10 days followed by limited dilution to select single clones.
Each concentration was tested in triplicate. After about 24 hours, luciferase activity was determined using ONE-Glo Luciferase Assay Reagent (E6110, Promega) following the manufacturer's recommended procedure. EC50 were calculated by using Dotmatics software.

[1] = 786-O-Hif-Luc cells, about 24 hours

SMILES	EC50 [1] [nM]	EC50 [nM]
Cc1c(Oc2cc(F)cc(Cl)c2)ccc(S(=O)(=O)C(F)(F)F)c1Br [Compound 140, 3-Bromo-1-(3-chloro-5-fluoro-phenoxy)-2-methyl-4-(trifluoromethylsulfonyl)benzene]	2400	–
Cn1cc(Oc2ccc(S(=O)(=O)C(F)(F)F)c3c2CC(F)(F)[C@H]3O)cn1 [Compound 224, (S)-2,2-Difluoro-4-((1-methyl-1H-pyrazol-4-yl)oxy)-7-((trifluoromethyl)sulfonyl)-2,3-dihydro-1H-inden-1-ol]	180	–
CCS(=O)(=O)c1ccc(Oc2cc(F)cc(Cl)c2)c2c1C(O)CC2 (centres unmarked) [Compound 91, 4-(3-Chloro-5-fluorophenoxy)-7-(ethylsulfonyl)-2,3-dihydro-1H-inden-1-ol]	2300	–
N#Cc1cc(F)cc(Oc2ccc(S(=O)(=O)C3CCC3)c3c2CC(F)(F)[C@H]3O)c1 [Compound 209, (S)-3-((7-(Cyclobutylsulfonyl)-2,2-difluoro-1-hydroxy-2,3-dihydro-1H-inden-4-yl)oxy)-5-fluorobenzonitrile]	1900	–
N#Cc1cc(F)cc(Oc2ccc(S(=O)(=O)C(F)F)c(C#N)c2Cl)c1 [Compound 39, 2-Chloro-3-(3-cyano-5-fluorophenoxy)-6-((difluoromethyl)sulfonyl)benzonitrile]	600	–
CS(=O)(=O)c1ccc(Oc2cc(F)cc(C#N)c2)c2c1[C@H](O)C(F)(F)C2 [Compound 163, (S)-3-((2,2-Difluoro-1-hydroxy-7-(methylsulfonyl)-2,3-dihydro-1H-inden-4-yl)oxy)-5-fluorobenzonitrile]	–	23
CS(=O)(=O)c1ccc(Oc2cc(F)cc(C#N)c2)c2c1C(O)C(F)(F)C2 (centres unmarked) [Compound 223, 3-((2,2-Difluoro-1-hydroxy-7-(methylsulfonyl)-2,3-dihydro-1H-inden-4-yl)oxy)-5-fluorobenzonitrile]	–	63
N#Cc1cccc(Oc2ccc(S(=O)(=O)C(F)F)c(CO)c2Cl)c1 [Compound 43, 3-(2-Chloro-4-((difluoromethyl)sulfonyl)-3-(hydroxymethyl)phenoxy)benzonitrile]	790	–
CS(=O)(=O)c1ccc(Oc2cc(F)cc(C#N)c2)c2c1C(O)C(F)C2 (centres unmarked) [Compound 232, 3-Fluoro-5-((2-fluoro-1-hydroxy-7-(methylsulfonyl)-2,3-dihydro-1H-inden-4-yl)oxy)benzonitrile]	–	35
O=S(=O)(c1ccc(Oc2cncc(Cl)c2)c2c1[C@H](O)CC2)C(F)F [Compound 3, (R)-4-((5-chloropyridin-3-yl)oxy)-7-((difluoromethyl)sulfonyl)-2,3-dihydro-1H-inden-1-ol]	960	–
CCS(=O)(=O)c1ccc(Oc2cc(F)cc(C#N)c2)c2c1[C@H](O)C(F)(F)C2 [Compound 206, (S)-3-((7-(Ethylsulfonyl)-2,2-difluoro-1-hydroxy-2,3-dihydro-1H-inden-4-yl)oxy)-5-fluorobenzonitrile]	–	62
CS(=O)(=O)c1ccc(Oc2cc(F)cc(C#N)c2)c2c1[C@H](N)C(F)(F)C2 [Compound 165, 3-[(1S)-1-Amino-2,2-difluoro-7-methylsulfonyl-indan-4-yl]oxy-5-fluoro-benzonitrile]	–	240
N#Cc1c(Oc2cc(F)cc(Cl)c2)ccc(S(=O)(=O)C(F)F)c1CO [Compound 35, 6-(3-Chloro-5-fluorophenoxy)-3-((difluoromethyl)sulfonyl)-2-(hydroxymethyl)benzonitrile]	> 20000	–
Cc1nnc(/C=C/c2c(S(=O)(=O)C(F)(F)F)ccc(Oc3cc(F)cc(C#N)c3)c2C)o1 [Compound 151, 3-Fluoro-5-[2-methyl-3-[(E)-2-(5-methyl-1,3,4-oxadiazol-2-yl)vinyl]-4-(trifluoromethylsulfonyl)phenoxy]benzonitrile]	8900	–
N#Cc1cc(F)cc(Oc2ccc(S(=O)(=O)C(F)(F)F)c3c2CC(F)(F)[C@H]3N)c1 [Compound 290, 3-[(1S)-1-amino-2,2-difluoro-7-(trifluoromethylsulfonyl)indan-4-yl]oxy-5-fluoro-benzonitrile]	–	170
O=S(=O)(c1ccc(Oc2cc(F)cc(Cl)c2)c2c1[C@H](O)CC2)C(F)(F)F [Compound 56, (R)-4-(3-Chloro-5-fluorophenoxy)-7-((trifluoromethyl)sulfonyl)-2,3-dihydro-1H-inden-1-ol]	68	–
N#Cc1cc(F)cc(Oc2ccc(S(=O)(=O)C(F)(F)F)c(C#N)c2Br)c1 [Compound 100, 2-Bromo-3-(3-cyano-5-fluorophenoxy)-6-((trifluoromethyl)sulfonyl)benzonitrile]	7600	–
N#Cc1cncc(Oc2ccc(S(N)(=O)=O)c3c2CC(F)(F)[C@H]3O)c1 [Compound 253, (S)-7-((5-Cyanopyridin-3-yl)oxy)-2,2-difluoro-3-hydroxy-2,3-dihydro-1H-indene-4-sulfonamide]	1080	–
O=S(=O)(c1ccc(Oc2cc(Cl)cc(Cl)c2)c(Br)c1)C(F)(F)F [Compound 172, 2-Bromo-1-(3,5-dichlorophenoxy)-4-((trifluoromethyl)sulfonyl)benzene]	3410	–

SMILES	EC50 [1] [nM]	EC50 [nM]
Cc1c(S(C)(=O)=O)ccc(Oc2cc(F)cc(Cl)c2)c1C(F)F [Compound 53, 1-(3-Chloro-5-fluorophenoxy)-2-(difluoromethyl)-3-methyl-4-(methylsulfonyl)benzene]	3300	–
N#Cc1cc(F)cc(Oc2ccc(S(=N)(=O)C(F)(F)F)c3c2CCC3O)c1 (stereo not drawn) [Compound 258, 3-Fluoro-5-((1-hydroxy-7-(S-(trifluoromethyl)sulfonimidoyl)-2,3-dihydro-1H-inden-4-yl)oxy)benzonitrile]	2100	–
CS(=O)(=O)c1ccc(Oc2cc(F)cc(C#N)c2)c(C#N)c1Cl [Compound 152, 2-chloro-6-(3-cyano-5-fluorophenoxy)-3-(methylsulfonyl)benzonitrile]	2100	–
O=S(=O)(c1ccc(Oc2c(F)ccc3[nH]ncc23)c2c1[C@H](O)C(F)(F)C2)C(F)(F)F [Compound 264, (S)-2,2-Difluoro-4-((5-fluoro-1H-indazol-4-yl)oxy)-7-((trifluoromethyl)sulfonyl)-2,3-dihydro-1H-inden-1-ol]	2730	–
N#Cc1cc(Oc2ccc(S(=O)(=O)C(F)F)c3c2CC(F)(F)[C@H]3O)ccc1F [Compound 200, (S)-5-((7-((Difluoromethyl)sulfonyl)-2,2-difluoro-1-hydroxy-2,3-dihydro-1H-inden-4-yl)oxy)-2-fluorobenzonitrile]	130	–
O=S(=O)(c1ccc(Oc2cc(F)cc(F)c2)c(Cl)c1CO)C(F)F [Compound 168, (2-Chloro-6-((difluoromethyl)sulfonyl)-3-(3,5-difluorophenoxy)phenyl)methanol]	310	–
CNS(=O)(=O)c1ccc(Oc2cc(F)cc(C#N)c2)c2c1[C@H](O)C(F)(F)C2 [Compound 254, (S)-7-(3-Cyano-5-fluorophenoxy)-2,2-difluoro-3-hydroxy-N-methyl-2,3-dihydro-1H-indene-4-sulfonamide]	–	120
CS(=O)(=O)c1ccc(Oc2cc(F)cc(C#N)c2)c2c1[C@H](O)C(F)(Cl)C2 (stereo partly drawn) [Compound 270, 3-(((1S)-2-chloro-2-fluoro-1-hydroxy-7-(methylsulfonyl)-2,3-dihydro-1H-inden-4-yl)oxy)-5-fluorobenzonitrile]	100	–
O[C@@H]1CCc2c(Oc3cc(F)cc(F)c3)ccc(C(F)(F)F)c21 [Compound 58, (R)-4-(3,5-Difluorophenoxy)-7-(trifluoromethyl)-2,3-dihydro-1H-inden-1-ol]	160	–
Cc1cc(Oc2ccc(S(=O)(=O)C(F)F)c3c2CC(F)(F)[C@H]3O)ccc1F [Compound 198, (S)-7-((Difluoromethyl)sulfonyl)-2,2-difluoro-4-(4-fluoro-3-methylphenoxy)-2,3-dihydro-1H-inden-1-ol]	290	–
Cc1c(S(C)(=O)=O)ccc(Oc2cc(F)cc(F)c2)c1C#N [Compound 52, 6-(3,5-Difluorophenoxy)-2-methyl-3-(methylsulfonyl)benzonitrile]	1000	–
O=S(=O)(c1ccc(Oc2ccc(F)c(Br)c2)c2c1[C@H](O)C(F)(F)C2)C(F)F [Compound 194, (S)-4-(3-Bromo-4-fluorophenoxy)-7-((difluoromethyl)sulfonyl)-2,2-difluoro-2,3-dihydro-1H-inden-1-ol]	330	–
O=S(=O)(c1ccc(Oc2cc(F)cc(Cl)c2)c(Br)c1)C(F)F [Compound 131, 2-Bromo-1-(3-chloro-5-fluorophenoxy)-4-((difluoromethyl)sulfonyl)benzene]	2000	–
CS(=O)(=O)c1ccc(Oc2cc(F)cc(C#N)c2)c2c1C(O)CC2 (centres unmarked) [Compound 222, 3-Fluoro-5-((1-hydroxy-7-(methylsulfonyl)-2,3-dihydro-1H-inden-4-yl)oxy)benzonitrile]	1800	–
N#Cc1cncc(Oc2ccc(S(=O)(=O)C(F)(F)F)c3c2CC(F)(F)[C@H]3O)c1 [Compound 235, (S)-5-((2,2-Difluoro-1-hydroxy-7-((trifluoromethyl)sulfonyl)-2,3-dihydro-1H-inden-4-yl)oxy)nicotinonitrile]	–	15
N#Cc1cc(F)cc(Oc2ccc(S(=O)(=O)C(F)(F)F)cc2C#N)c1 [Compound 120, 2-(3-Cyano-5-fluorophenoxy)-5-((trifluoromethyl)sulfonyl)benzonitrile]	7400	–
CS(=O)(=O)c1ccc(Oc2cc(F)cc(Cl)c2)c(C(F)F)c1C#N [Compound 92, 3-(3-Chloro-5-fluorophenoxy)-2-(difluoromethyl)-6-(methylsulfonyl)benzonitrile]	490	–
CS(=O)(=O)c1ccc(Oc2cc(C#N)cc(C(F)F)c2)c2c1C(O)CC2 (centres unmarked) [Compound 249, 3-(Difluoromethyl)-5-((1-hydroxy-7-(methylsulfonyl)-2,3-dihydro-1H-inden-4-yl)oxy)benzonitrile]	1470	–
N#Cc1cc(F)cc(Oc2ccc(S(=O)(=O)C(F)F)c(CO)c2Cl)c1 [Compound 42, 3-(2-Chloro-4-((difluoromethyl)sulfonyl)-3-(hydroxymethyl)phenoxy)-5-fluorobenzonitrile]	450	–
